Measurements reported in patent publication EP4818177A1, “TRICYCLIC DERIVATIVE INHIBITOR, AND PREPARATION METHOD AND USE THEREFOR” (Shanghai Hansoh Biomedical Co., Ltd., priority 2023, dated 2025).
pIC50: −log10 of the molar value.

What was measured:
[1] = system: MTAP Knockout HCT116 cells; assay: Cell proliferation inhibition (CellTiter-Glo), MTAP knockout cells; format: cell-based; conditions: for Selectivity: HCT116 versus MTAP Knockout HCT116; for pIC50: Homo sapiens, HCT-116, MTAP Knockout HCT116 cells, 72-240 hours incubation, CellTiter-Glo
Source text: (§1) Test Example 2: Determination of the inhibitory effect of the compounds of the present invention on the proliferation activity of HCT116 and MTAP Knockout HCT116 cells.
(§2) 1. Experimental objective: to determine the inhibitory effect of the compound on the proliferation activity of HCT116 wild-type and HCT116 MTAP knockout cells. 2. Experimental instruments: Centrifuge (Eppendorf 5810R); microplate reader (BioTek Synergy H1 or PerkinElmer Envision); pipette (Eppendorf or Rainin). 3. Experimental reagents: HCT116 and MTAP Knockout HCT116 cells were purchased from Nanjing Cobioer; Cell Titer-Glo was purchased from Promega (Cat. No. G7573); McCoy' 5A was purchased from Gibco (Cat. No. 12330031); FBS was purchased from Gibco (Cat. No. 10091148); PBS was purchased from Gibco (Cat. No. 10010023); trypsin was purchased from Gibco (Cat. No. 25200056); cell culture plates were purchased from Corning (Cat. No. 3610). 4. Experimental methods: HCT116 and MTAP Knockout HCT116 cells were cultured in McCoy'5A medium containing 10% FBS until an appropriate cell density was reached. The cells were then collected and adjusted to a suitable concentration using complete medium. The cell suspension was seeded into a 96-well plate at 90 µL per well and allowed to adhere overnight in a 37°C, 5% CO2 incubator. Compound solutions of various concentrations were prepared using DMSO and culture medium, with a vehicle control set. The compound solutions were added to the 96-well plate at 10 µL per well, and the plate was incubated in a 37°C, 5% CO2 incubator for an additional 72-240 hours. After incubation, CellTiter-Glo solution was added, and the mixture was mixed uniformly by shaking, followed by incubation in the dark for 10 to 30 minutes. Luminescence was measured using a Synergy H1 or Envision microplate reader. 5. Experimental data processing method: The inhibition rate was calculated using the luminescence signal values, and the concentrations along with the inhibition rates were subjected to non-linear regression curve fitting using Graphpad Prism software to obtain the IC50 values.

[2] = biological target: T1, PRMT5/MEP50-MTA protein complex (Homo sapiens, UniProt O14744); assay: Thermal shift assay: change in melting temperature of the PRMT5/MEP50-MTA protein complex; format: binding; conditions: compound 8 µM, PRMT5/MEP50 2 µM, MTA 2 µM; Tm minus DMSO vehicle control
T1 construct: purchased Viva Biotech
Source text: Test Example 1: Determination of the ability of the compounds of the present invention to improve the thermal stability (melting temperature) of the PRMT5/MEP50-MTA protein complex.
1. Experimental objective: The objective of this test example is to determine the ability of the compound to improve the thermal stability of the PRMT5/MEP50-MTA protein complex, resulting in an increase in the protein melting temperature. 2. Experimental instruments: Quantitative PCR instrument (Quantstudio6 Flex) was purchased from Life Technologies; pipettes were purchased from Eppendorf or Rainin. 3. Experimental reagents and consumables: PRMT5/MEP50 protein was prepared by Viva Biotech; HEPES was purchased from Thermo Fisher Scientific (Cat. No. 15630080); DTT was purchased from Sigma (Cat. No. 43816-10ml); sodium chloride was purchased from Invitrogen (Cat. No. AM9760G); Protein Thermal Shift™ Dye Kit was purchased from Thermo Fisher Scientific (Cat. No. 4461146); methylthioadenosine (MTA) was purchased from Sigma (Cat. No. D5011). 4. Experimental methods: In this experiment, the thermal shift method was used to measure the change in the melting temperature (Tm) of the PRMT5/MEP50-MTA protein complex before and after compound binding, thereby characterising the ability of the compound to improve the thermal stability of the PRMT5/MEP50-MTA protein complex. A solution containing 50 mM HEPES, 10 mM DTT, 2 µM MTA, SYPRO Orange and 250 mM NaCl was prepared as the experimental buffer. Human PRMT5/MEP50 protein was added to a final concentration of 2 µM, and the mixture was incubated at room temperature for 30 minutes. The above reaction mixture was aliquoted into 8-strip PCR tubes at 19.5 µL per tube. Then 0.5 µL of test compound or DMSO was added to each tube, providing a total reaction volume of 20 µL and a final compound concentration of 8 µM. 2.5% DMSO was set as the vehicle control. After incubation at room temperature for 10 minutes, the PCR tubes were placed in a PCR instrument, and the melt curve function was selected to measure the melting temperature of the PRMT5/MEP50-MTA protein complex in different treatment groups (heated from 25°C to 95°C, 0.03°C/s). 5. Experimental data processing method: The experimental data files from the PCR instrument were imported into the thermal shift software to obtain the melting temperature (Tm) for each treatment group.

HCT116 wild-type cells = assay: Cell proliferation inhibition (CellTiter-Glo), wild-type cells; format: cell-based; conditions: Homo sapiens, HCT-116, HCT116 wild-type cells, 72-240 hours incubation
Source text: as §1, §2

[3] = Pharmacokinetics in rats (plasma) after oral administration; conditions: male, SD, rat, 5 mg/kg
Description: Test Example 4: Determination of the pharmacokinetics of the compounds of the present invention in rats (plasma) after oral administration.
Study objective: SD rats were used as test animals to study the pharmacokinetic behaviour of the following example compounds in rats (plasma) after oral administration at a dose of 5 mg/kg. […] Test scheme 2.1 Test drugs: Vehicle formula: 0.5% CMC-Na (1% Tween 80); the examples of the present invention, prepared in house. 2.2 Test animals: 3 SD rats per group, male, purchased from Shanghai Bikai Keyi Biotechnology Co., Ltd., with animal license number (SCXK (Shanghai) 2018-0006, No.20180006037467). 2.3 Administration: 3 SD rats per group, male, were fasted overnight and then respectively administered PO at a dose of 5 mg/kg and a volume of 10 mL/kg. 2.4 Sample collection: 0.2 mL of blood was collected from the jugular vein of rats before administration and at 0, 0.25, 0.5, 1, 2, 4, 6, 8 and 24 h after administration, and placed in EDTA-K2test tubes, and the test tubes were centrifuged at 6,000 rpm at 4°C for 6 min to separate the plasma, which was stored at -80°C. The animals were fed 4 h after administration. 2.5 Sample treatment • 1) 160 uL of acetonitrile was added to 40 uL of plasma sample for precipitation, and after mixing, the mixture was centrifuged at 3,500 × g for 5-20 minutes. • 2) 100 uL of the treated supernatant solution was taken for LC/MS/MS analysis to determine the concentration of the test compounds. 2.6 Liquid phase analysis • Liquid phase conditions: Shimadzu LC-20AD pump; • Mass spectrometry conditions: AB Sciex API 4000 mass spectrometer; • Chromatographic column: phenomenex Gemiu 5 um C18 50 × 4.6 mm; • Mobile phase: solution A: 0.1% formic acid in water, solution B: methanol; • flow rate: 1.0 mL/min; Elution time: 0-4.0 min, with eluents as follows:
Experimental results and analysis: The main pharmacokinetic parameters were calculated using WinNonlin 8.2.

T1 sequence (O14744 whole entry): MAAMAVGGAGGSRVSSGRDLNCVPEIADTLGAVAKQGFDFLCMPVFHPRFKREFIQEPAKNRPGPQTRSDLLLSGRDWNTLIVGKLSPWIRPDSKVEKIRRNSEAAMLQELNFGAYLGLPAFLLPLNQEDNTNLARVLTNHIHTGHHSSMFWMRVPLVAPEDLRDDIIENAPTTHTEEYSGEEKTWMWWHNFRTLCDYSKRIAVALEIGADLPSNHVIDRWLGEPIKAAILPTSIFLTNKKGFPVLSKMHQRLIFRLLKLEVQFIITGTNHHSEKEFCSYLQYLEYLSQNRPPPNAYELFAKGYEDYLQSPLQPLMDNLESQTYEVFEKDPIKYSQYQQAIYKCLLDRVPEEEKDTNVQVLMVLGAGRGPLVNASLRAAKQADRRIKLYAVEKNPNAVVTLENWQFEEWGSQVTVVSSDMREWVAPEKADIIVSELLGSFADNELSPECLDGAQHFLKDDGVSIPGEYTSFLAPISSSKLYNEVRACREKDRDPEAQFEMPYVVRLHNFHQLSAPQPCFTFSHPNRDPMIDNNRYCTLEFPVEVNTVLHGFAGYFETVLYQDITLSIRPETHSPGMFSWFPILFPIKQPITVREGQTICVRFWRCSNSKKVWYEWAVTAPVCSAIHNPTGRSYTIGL
T1 sequence (Q9BQA1 whole entry partner): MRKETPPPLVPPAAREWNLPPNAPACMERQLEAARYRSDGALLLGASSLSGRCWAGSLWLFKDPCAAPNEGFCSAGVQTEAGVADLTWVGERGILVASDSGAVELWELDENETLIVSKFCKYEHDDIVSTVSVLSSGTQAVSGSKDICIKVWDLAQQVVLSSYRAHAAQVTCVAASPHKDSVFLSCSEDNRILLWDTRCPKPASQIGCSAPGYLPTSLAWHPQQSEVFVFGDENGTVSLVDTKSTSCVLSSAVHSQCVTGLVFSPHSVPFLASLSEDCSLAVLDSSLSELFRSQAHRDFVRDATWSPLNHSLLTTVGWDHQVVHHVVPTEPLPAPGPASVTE

Structure (SMILES): CNN(C(=O)c1ccc2nc(N)c3cnn(C)c3c2c1)C1COCc2nc(C(F)(F)F)ccc21 (racemic) [Example 301, 4-Amino-N',1-dimethyl-N-[2-(trifluoromethyl)-6,8-dihydro-5H-pyrano[3,4-b]pyridin-5-yl]pyrazolo[4,3-c]quinoline-8-hydrazide]
- Selectivity [1]: 94
- pIC50 [1]: 7.85
- ΔTm at 8 µM [2]: 11.6 °C
- pIC50 (HCT116 wild-type cells): 5.87

Structure (SMILES): CN(C(=O)c1ccc2nc(N)c3cnn(C)c3c2c1)C1COCc2c1ccn1cc(Br)nc21 (centres unmarked) [Example 37, 4-Amino-N-(2-bromo-7,10-dihydro-8H-imidazo[1,2-a]pyrano[3,4-c]pyridin-7-yl)-N,1-dimethyl-1H-pyrazolo [4,3-c] quinoline-8-carboxamide]
- Selectivity [1]: 166
- pIC50 [1]: 8.04
- ΔTm at 8 µM [2]: 11.3 °C
- pIC50 (HCT116 wild-type cells): 5.82

Structure (SMILES): Cc1cc2nc(N)c3cncn3c2cc1C(=O)N(C)[C@@H]1COCc2c1ccn1cc(C(F)(F)F)nc21 [Example 39-P1, (S)-4-amino-N,7-dimethyl-N-(2-(trifluoromethyl)-7,10-dihydro-8H-imidazo[1,2-a]pyrano[3,4-c]pyridin-7-yl)imidazo[1,5-a]quinoxaline-8-carboxamide]
- Selectivity [1]: 108
- pIC50 [1]: 7.89
- ΔTm at 8 µM [2]: 12.4 °C
- pIC50 (HCT116 wild-type cells): 5.86

Structure (SMILES): Cc1cc2nc(N)c3cncn3c2cc1C(=O)N(C)[C@@H]1COCc2c1ccn1c(C(F)(F)F)cnc21 [Example 62-P1, (S)-4-amino-N,7-dimethyl-N-(3-(trifluoromethyl)-7,10-dihydro-8H-imidazo[1,2-a]pyrano[3,4-c]pyridin-7-yl)imidazo[1,5-a]quinoxaline-8-carboxamide]
- AUC(0-inf) [3]: 1360 ng·h/mL
- Cmax [3]: 441 ng/mL
- MRT inf [3]: 4 h
- Tmax [3]: 0.5 h
- half-life [3]: 4.1 h
- ΔTm at 8 µM [2]: 12.5 °C

Structure (SMILES): CNN(C(=O)c1cc2c(cc1F)nc(N)c1cncn12)C1COCc2nc(C(F)(F)F)ccc21 (centres unmarked) [Example 279, 4-Amino-7-fluoro-N'-methyl-N-[2-(trifluoromethyl)-6,8-dihydro-5H-pyrano[3,4-b]pyridin-5-yl]imidazo[1,5-a]quinoxaline-8-hydrazide]
- AUC(0-inf) [3]: 729 ng·h/mL
- Cmax [3]: 233 ng/mL
- MRT inf [3]: 2.1 h
- Tmax [3]: 0.5 h
- half-life [3]: 1 h
- ΔTm at 8 µM [2]: 12.2 °C

Structure (SMILES): [2H]C([2H])([2H])NN(C(=O)c1cc2c3c(c(N)nc2cn1)C(C)OC3)[C@@H]1COCc2nc(C(F)(F)F)ccc21 (some centres unmarked) [Example 322]
- ΔTm at 8 µM [2]: 10.7 °C

Structure (SMILES): [2H]C([2H])([2H])NN(C(=O)c1cc2c3c(c(N)nc2cc1F)COC3)C1COCc2c1ccn1c(C(F)(F)F)cnc21 (centres unmarked) [Example 351, 4-Amino-7-fluoro-N'-(trideuteriomethyl)-N-(3-trifluoromethyl-7,10-dihydro-8H-imidazo [1,2-a]pyrano [3,4-c]pyridin-7-yl)-1,3-dihydrofuro [3,4-c] quinoline-8-carbohydrazide]
- AUC(0-inf) [3]: 9660 ng·h/mL
- Cmax [3]: 2330 ng/mL
- MRT inf [3]: 3.3 h
- Tmax [3]: 0.5 h
- half-life [3]: 2.3 h
- ΔTm at 8 µM [2]: 12.6 °C

Structure (SMILES): [2H]C([2H])([2H])NN(C(=O)c1cc2c3c(c(N)nc2cn1)COC3)C1([2H])COCc2c1ccn1c(C(F)(F)F)cnc21 (centres unmarked) [Example 354, 4-Amino-N'-(methyl-d3)-N-(3-(trifluoromethyl)-7,10-dihydro-8H-imidazo[1,2-a]pyrano[3,4-c]pyridin-7-yl-7-d)-1,3-dihydrofuro[3,4-c][1,7]naphthyridine-8-carbohydrazide]
- ΔTm at 8 µM [2]: 10.8 °C

Structure (SMILES): [2H]C([2H])([2H])NN(C(=O)c1cc2c3c(c(N)nc2cn1)C(C)OC3)C1COCc2c1ccn1c(C(F)(F)F)cnc21 (centres unmarked) [Example 362, 4-Amino-3-methyl-N'-(trideuteriomethyl)-N-(3-trifluoromethyl-7,10-dihydro-8H-imidazo[1,2-a]pyrano[3,4-c]pyridin-7-yl)-1,3-dihydrofuro[3,4-c] naphthyridine-8-carbohydrazide]
- ΔTm at 8 µM [2]: 11.2 °C

Structure (SMILES): CNN(C(=O)c1cc2c3c(c(N)nc2cn1)COC3)C1COc2cc(S(F)(F)(F)(F)F)ccc21 [Example 372, rel-(R)-4-amino-N'-methyl-N-(6-(pentafluoro-6-sulphanyl)-2,3-dihydrobenzofuran-3-yl)-1,3-dihydrofuro[3,4-c][1,7]naphthyridine-8-carbohydrazide]
- ΔTm at 8 µM [2]: 11.2 °C

Structure (SMILES): CNN(C(=O)c1cc2c(cn1)nc(N)c1cnn(C)c12)C1COc2cc(S(F)(F)(F)(F)F)ccc21 (centres unmarked) [Example 375, 4-Amino-N',1-dimethyl-N-(6-(pentafluoro-6-sulphanyl)-2,3-dihydrobenzofuran-3-yl)-1H-pyrazolo[4,3-c][1,7]naphthyridine-8-carbohydrazide]
- ΔTm at 8 µM [2]: 12.7 °C

Structure (SMILES): CNN(C(=O)c1cc2c(cn1)nc(N)c1cncn12)C1COCc2nc(S(F)(F)(F)(F)F)ccc21 (centres unmarked) [Example 387, 4-Amino-N'-methyl-N-(2-pentafluorosulphanyl-5,8-dihydro-6H-pyrano[3,4-b]pyridin-5-yl)imidazo[1,5-a]pyridone[3,4-e]pyrazoline-8-hydrazide]
- ΔTm at 8 µM [2]: 12.6 °C

Structure (SMILES): [2H]C([2H])([2H])NN(C(=O)c1ccc2nc(N)c3c(c2c1)COC3)C1COCc2c1ccn1c(C(F)(F)F)cnc21 (centres unmarked) [Example 392, 4-Amino-N'-(trideuteriomethyl)-N-(3-trifluoromethyl-7,10-dihydro-8H-imidazo [1,2-a]pyrano [3,4-c]pyridin-7-yl)-1,3-dihydrofuro [3,4-c] quinoline-8-carbohydrazide]
- ΔTm at 8 µM [2]: 10.4 °C

Structure (SMILES): [2H]C([2H])([2H])NN(C(=O)c1cc2c3c(c(N)nc2cc1Cl)COC3)C1COCc2c1ccn1c(C(F)(F)F)cnc21 (centres unmarked) [Example 394, 4-Amino-7-chloro-N'-(methyl-d3)-N-(3-(trifluoromethyl)-7,10-dihydro-8H-imidazo [1,2-a]pyrano [3,4-c]pyridin-7-yl)-1,3-dihydrofuro [3,4-c] quinoline-8-carbohydrazide]
- ΔTm at 8 µM [2]: 13.2 °C

Structure (SMILES): [2H]C([2H])([2H])NN(C(=O)c1cc2c(cc1Cl)nc(N)c1cnn(C)c12)C1COCc2c1ccn1c(C(F)(F)F)cnc21 (centres unmarked) [Example 435, 4-Amino-7-chloro-1-methyl-N'-(methyl-d3)-N-(3-(trifluoromethyl)-7,10-dihydro-8H-imidazo[1,2-a]pyrano[3,4-c]pyridin-7-yl)-1H-pyrazolo[4,3-c] quinoline-8-carbohydrazide]
- ΔTm at 8 µM [2]: 13.7 °C

Structure (SMILES): [2H]C([2H])([2H])NN(C(=O)c1ccc2nc(N)c3cnn(C)c3c2c1)[C@@H]1COCc2c1ccn1c(C(F)(F)F)cnc21 [Example 436-P1]
- ΔTm at 8 µM [2]: 11.9 °C

Structure (SMILES): CNN(C(=O)c1cc2c3c(c(N)nc2cn1)N=NC3C)C1COCc2c1ccn1c(C(F)(F)F)cnc21 (centres unmarked) [Example 444, 4-Amino-N',1-dimethyl-N-(3-(trifluoromethyl)-7,10-dihydro-8H-imidazo[1,2-a]pyrano[3,4-c]pyridin-7-yl)-1H-pyrazolo[3,4-c][1,7]naphthyridine-8-carbohydrazide]
- ΔTm at 8 µM [2]: 12.7 °C
